Experimental data reported in patent publication US20240358865A1, “QUINOLINYL AND PRIDINYL CONTAINING COMPOUNDS TARGETING ON ALPHA-SYNUCLEIN FOR NEUROLOGICAL DISEASES” (Washington University, priority 2023, published 2024).
Entries after “also recorded” stand apart in the source; their conditions may differ.

Columns and labels:
[1] = target: alpha-synuclein fibrils (Homo sapiens, UniProt P37840); assay: Competitive binding to alpha-synuclein fibrils vs [3H]BF2846 (site 9); conditions: for Ki / Ki (nM), in a-syn fibrils v.s. [3H]BF2846: alpha-synuclein fibrils, radioligand [3H]BF2846, binding site 9; for Ki: read-out: Ki (nM), in a-syn fibrils v.s. [3H]BF2846; for max % inh_site9: maximal inhibition of [3H]BF2846 binding to alpha-synuclein fibrils
[2] = target: AD brain tissue (Homo sapiens, UniProt P05067); assay: Competitive binding in AD brain tissue vs [3H]PiB; conditions: for Ki: AD brain tissue, radioligand [3H]PiB; for max % Inh_PiB: maximal inhibition of [3H]PiB binding in AD brain tissue
Sequence of AD brain tissue (P05067 whole entry): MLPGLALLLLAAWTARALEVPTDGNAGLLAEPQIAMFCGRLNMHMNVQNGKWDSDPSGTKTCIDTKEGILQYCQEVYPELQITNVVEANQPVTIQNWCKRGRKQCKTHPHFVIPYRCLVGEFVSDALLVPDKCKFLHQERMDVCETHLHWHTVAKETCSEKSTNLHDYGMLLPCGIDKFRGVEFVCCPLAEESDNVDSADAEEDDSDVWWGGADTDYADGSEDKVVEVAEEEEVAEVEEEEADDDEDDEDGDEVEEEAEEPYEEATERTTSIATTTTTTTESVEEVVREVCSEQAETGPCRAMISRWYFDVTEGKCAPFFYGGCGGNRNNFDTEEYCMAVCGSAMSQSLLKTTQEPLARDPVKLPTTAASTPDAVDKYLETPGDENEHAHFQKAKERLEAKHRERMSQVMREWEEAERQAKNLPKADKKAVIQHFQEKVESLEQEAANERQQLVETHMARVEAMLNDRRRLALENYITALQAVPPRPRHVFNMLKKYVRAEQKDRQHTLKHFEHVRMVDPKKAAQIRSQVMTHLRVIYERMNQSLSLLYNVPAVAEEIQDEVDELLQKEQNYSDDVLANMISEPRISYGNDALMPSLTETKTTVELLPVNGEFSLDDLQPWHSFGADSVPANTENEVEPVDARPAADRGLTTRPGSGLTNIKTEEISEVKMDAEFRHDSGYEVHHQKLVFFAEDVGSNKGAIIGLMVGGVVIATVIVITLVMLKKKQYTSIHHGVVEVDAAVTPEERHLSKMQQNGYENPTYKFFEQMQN
Procedure: The binding potency for Abeta was determined using [^3H]PIB for these new compounds (FIG. 5B).
If the Ki value is smaller, these compounds are potent for AD brain tissue binding and are not selective for alpha-synuclein over abeta, or PD over AD.

[3] = target: T1, α-synuclein fibrils amplified from PD tissue (Homo sapiens, UniProt P37840); assay: Direct radioligand (homologous competitive) binding assay; conditions: read-out: binding affinity for α-synuclein fibrils
T1 construct: from tissue; host or cells: fibrils amplified from PD tissue (Banner amplified fibrils are mentioned)
Excerpt: (§1) The radiosynthesis of [^18F]TZ83-41 was accomplished by a two-step procedure with [^18F]fluoroethyl ptoluenesulfonate as a prosthetic group, followed by O-alkylation to the quinolinyl-containing phenol group. [^18F]TZ80-156 was synthesized starting from the allylic bromide precursor via nucleophilic halogen exchange (halex) reaction with [^18F]fluoride, followed by deprotection of the N-Boc amine with trifluoroacetic acid. Homologous competitive binding assays with α-synuclein fibrils amplified from PD tissue were used to determine the direct binding affinity of the two radioligands. The biodistribution study was performed in male Sprague Dawley (SD) rats at four time points (5, 30, 60 min and 120 min) after intravenous injection of the radiotracer. The uptake of radioactivity was calculated as percentage injected dose per gram (% ID/gram). Both radiotracers were evaluated with microPET imaging using a Focus 220 microPET scanner to collect dynamic scans after intravenous injection into male macaques (NHP) (FIGS. 1A-1C).
(§2) The radioligands [^18F]TZ83-41 and [^18F]TZ80-156 were successfully produced in 17±3% (n=2) and 25±5% (n=2) radiochemical yield (RCY) respectively with high molar activity (>37 GBq/μmol) and high radiochemical purity (>99%), at the end of synthesis (EOS).

[4] = tested on: Alzheimer's disease brain tissue homogenate; assay: Direct radioligand binding to Alzheimer's disease brain tissue homogenate
Excerpt: as §2

[5] = MicroPET imaging of the macaque (NHP) brain; type: in vivo; conditions: for crossing of the blood brain barrier: NHP; for brain standardized uptake value (SUV) maximum: NHP brain, intravenous; for brain standardized uptake value (SUV) maximum / washout from the NHP brain: microPET
Excerpt: as §1

[6] = Biodistribution study in rats; type: in vivo, Sprague Dawley (SD) rats
Excerpt: as §1

[7] = PET studies in the brains of nonhuman primates (Example 3); type: in vivo
Excerpt: A PET study in nonhuman primates found uptake of [^11C]TZ61-84 (FIG. 3C).
Another PET study of [^18F]TZ80-156 and [^18F]TZ83-41 in nonhuman primates also found uptake (FIG. 4A).
A further PET study also found uptake of several additional compounds, including [^18F]TZ80-156 and [^18F]TZ83-41 (FIG. 4B).

[8] = NHP plasma radiometabolite study (column-switching HPLC); type: in vivo, Monkey; conditions: for Peak B (%) (parental tracer): monkey plasma
Excerpt: Monkey arterial/venous blood samples were collected at various intervals during the PET scans to measure the radio metabolite profile using the column-switching HPLC system equipped with an Oasis HLB online capture column (80 Å, 15 μm, 3.9 mm×20 mm, Waters 186001414) with Universal Guard Column holder (WAT046910, Waters) and a Agilent ZORBAX Eclipse XDB-C18 analytical column (5 μm, 250×4.6 mm, Part No. 990967-902), following a published protocol (Hilton J, et al., Nucl Med Biol. 2000 August; 27(6):627-30; Cai Z, et al., ACS Chem Neurosci. 2020 Feb. 19; 11(4):592-603).
Briefly, blood samples (vary with volume, 4-8 mL) were collected at 5, 15, 30, 60, 90 min post-injection of radiotracer. The whole blood was centrifuged at RCF 1300 g for 5 min to separate the blood cells and obtain plasma. Clean supernatant plasma was collected and added into solid urea to eliminate competitive protein binding and to allow complete backflush of the parent compound and metabolites from the capture column to analytical column. Typically, 3.2 mL of plasma is added to 2.12 g of urea to yield a final concentration of 8 M urea and a final volume of about 4.5 mL. The plasma-urea mix was then filtered through a Whatman® GD/X syringe filters (pore size 1 μm, diam. 13 mm, WHA68841310, Sigma, USA) and injected into a 5 mL HPLC loop concatenating with the capture column, which eluted with 1% acetonitrile in ammonium formate (0.1 M, pH=4.5) at 2 mL/min for 4 min. The enriched radioactivity in the short capture column was reverse flowed into an analytical C18 column with 60% acetonitrile and 40% ammonium formate (0.1 M, pH=4.5) at a flow rate of 1.0 mL/min for 25 min.
The radioactive peak B is the parental [^18F]TZ83-41 tracer with retention time of 14.3 min; one radiometabolite is peak A at 6.8 min (FIG. 2A and FIG. 2B).

SMILES	Ki [1]	max % inh_site9 [1]	Ki [2]	max % Inh_PiB [2]	further results
COc1ccc(Nc2ccc3cc(O)ccc3n2)cn1 [TZ61-23]	1.56 nM	20%	36 ± 37 nM	30%	
COc1ccc(Nc2ccc3cc(OC/C=C/I)ccc3n2)cn1 [TZ61-84]	21.5 ± 34 nM	100%	13.2 ± 17.2 nM	90%	
COc1ccc(Nc2nc3ccccc3cc2N)cn1 [TZ64-73]	4.6 nM	20%	6.6 ± 2.7 nM	30%	
COc1ccc(Nc2ccc3ccc(N)cc3n2)cn1 [TZ64-87]	3.07 nM	50%	36 ± 30 nM	30%	
COc1ccc2nc(Nc3ccc(C=O)o3)ccc2c1 [TZ64-91]	1.4 nM	70%	53 ± 34 nM	50%	
COc1ccc(Nc2ccc3cc(Br)ccc3n2)cn1 [TZ64-105]	18.7 nM	50%	> 1000 nM		
CCc1ccc(Nc2ccc3cc(OCCN4CCCCC4)ccc3n2)cn1 [TZ80-30]	14.3 ± 25.4 nM	100%	158 ± 36 nM	80%	
COc1ccc(Nc2ccc3cc(OC(F)F)ccc3n2)cn1 [TZ80-37]	22.9 ± 28.2 nM	60%	99 ± 90 nM	70%	
COc1ccc(Nc2ccc3cc(OCc4ccncc4)ccc3n2)cn1 [TZ80-42]	16.6 ± 22.6 nM	70%	72 ± 56 nM	60%	
COc1ccc(Nc2ccc3cc(OCCF)ccc3n2)cn1.Cl [TZ80-55]	26.1 nM	70%	> 1000 nM		
COc1ccc2nc(Nc3ccnc(OC)c3)ccc2c1.Cl [TZ80-59-B]	17.9 ± 31.7 nM	70%	108 ± 73 nM	100%	
COc1ccc(Nc2ccc3cc(OCc4cccnc4)ccc3n2)cn1.Cl [TZ80-66-B]	30.4 ± 42.1 nM	70%	25.2 ± 21.7 nM	80%	
COc1cccc(COc2ccc3nc(Nc4ccc(OC)nc4)ccc3c2)c1 [TZ80-77]	32.8 ± 43.8 nM	100%	15 ± 23.5 nM	100%	
COc1ccc(Nc2ccc3cc(OC/C=C/C[18F])ccc3n2)cn1 [[^18F]TZ80-156]					Kd [3]: 0.035 µM; binding to Alzheimer's disease brain tissue homogenate [4]: little to no binding; crossing of the blood brain barrier [5]: crossed the blood brain barrier; brain standardized uptake value (SUV) maximum [5]: ~2.0; washout from the NHP brain [5]: favorable washout rate; also recorded: favorable washout kinetics; bone uptake ([6]; 5 min): 0.45; brain uptake ([6]; 5 min): 0.86 % ID/gram; bone uptake ([6]; 30 min): 2.18; brain uptake ([6]; 30 min): 0.25 % ID/gram; brain uptake ([6]; 60 min): 0.16 % ID/gram; bone uptake ([6]; 120 min): 3.09; defluorination ([6]; judged from bone uptake): Significant defluorination; brain uptake in PET study [7]: found uptake
CCCOc1ccc(Nc2ccc3cc(OCC[18F])ccc3n2)cn1 [[^18F]TZ83-41]					Kd [3]: 0.0076 µM; binding to Alzheimer's disease brain tissue homogenate [4]: little to no binding; crossing of the blood brain barrier [5]: crossed the blood brain barrier; brain standardized uptake value (SUV) maximum [5]: ~2.0; washout from the NHP brain [5]: favorable washout rate; also recorded: favorable washout kinetics; also recorded: suitable brain washout pharmacokinetics; brain uptake (in words) ([5]; nonhuman primate brain imaging): high brain uptake; brain uptake ([6]; from 5 to 120 min): 0.71˜0.24 % ID/gram; Peak B (%) (parental tracer) ([8]; 5 min post-injection): 92%; Peak B (%) (parental tracer) ([8]; 15 min post-injection): 69%; Peak B (%) (parental tracer) ([8]; 30 min post-injection): 59%; Peak B (%) (parental tracer) ([8]; 60 min post-injection): 47%; Peak B (%) (parental tracer) ([8]; 90 min post-injection): 38%; lipophilic radiometabolite entering the brain ([8]; nonhuman primate plasma samples post injection): no lipophilic radiometabolite; brain uptake in PET study [7]: found uptake

Second part, led by results:

Ki [1]	max % inh_site9 [1]	Ki [2]	max % Inh_PiB [2]	SMILES	further results
24.1 ± 39.7 nM	100%	50 ± 36 nM	80%	COc1ccc2nc(Nc3nc4ccc(N(C)C)cc4s3)ccc2c1 [TZ80-83]	
15 ± 12.4 nM	100%	> 1000 nM		CSc1ccc(Nc2ccc3cc(OC/C=C/I)ccc3n2)cn1 [TZ80-106]	
14.9 ± 19.1 nM	100%	> 1000 nM		COc1ccc(Nc2ccc3cc(OC/C=C/CF)ccc3n2)cn1 [TZ80-156]	
30.1 nM	60%	142 ± 103 nM	20%	CC(C)Oc1ccc(Nc2ccc3cc(OCCF)ccc3n2)cn1 [TZ83-39]	
13.3 ± 26.1 nM	60%	354 ± 407 nM	40%	CCOc1ccc(Nc2ccc3cc(OCCF)ccc3n2)cn1.Cl [TZ83-40]	
12.5 nM	60%	362 ± 372 nM	40%	CCCOc1ccc(Nc2ccc3cc(OCCF)ccc3n2)cn1 [TZ83-41]	
55.6 nM	40%	7.1 ± 10.5 nM	100%	COc1ccc2nc(Nc3cc(-c4ccccc4)n[nH]3)ccc2c1 [TZ88-5]	
		90 ± 155 nM	90%	COc1ccc2c(c1)CCC(Nc1cc(C)n[nH]1)=N2 [TZ88-7]	Ki (nM), in a-syn fibrils v.s. [3H]BF2846 [1]: None
		46 ± 78 nM	70%	COc1ccc2nc(Nc3ccc(-n4cccn4)nc3)ccc2c1 [TZ88-11]	Ki (nM), in a-syn fibrils v.s. [3H]BF2846 [1]: None
		1.6 ± 0.6 nM	100%	COc1ccc2nc(Nc3ccc(N4CCOCC4)nc3)ccc2c1 [TZ88-18]	Ki (nM), in a-syn fibrils v.s. [3H]BF2846 [1]: None
		5.8 ± 4.3 nM	100%	COc1ccc2nc(Nc3ccc4cn[nH]c4c3)ccc2c1 [TZ88-21]	Ki (nM), in a-syn fibrils v.s. [3H]BF2846 [1]: None
		> 1000 nM		COc1ccc2nc(Nc3ccc(NC(C)=O)nc3)ccc2c1 [TZ88-27]	Ki (nM), in a-syn fibrils v.s. [3H]BF2846 [1]: None
34 ± 75.3 nM		10.8 ± 8.3 nM	100%	COc1ccc(Nc2ccc3cc(OCCF)ccc3n2)cn1 [TZ90-3]	
46.2 ± 39.2 nM	Shallow	3.1 ± 2.3 nM	100%	COc1ccc2cc(Nc3ccc(OC)nc3)ncc2c1 [TZ90-4]	
	Shallow	2 ± 2.6 nM	100%	COc1ccc(Nc2ccc3cc(OC)ccc3n2)cc1 [TZ90-8]	
129 ± 77 nM		0.19 nM	30%	COc1ccc2nc(/C=C/c3nc4ccc(OC)cc4s3)ccc2c1 [TZ90-21]	
